A short description of data set [1]: method code SF-HPLC, from DOI: 10.1016/0378-5173(86)90195-x. Conditions: pH 7.4.
The nature of data set [2]: method code SF-RC, from DOI: 10.1016/j.bmcl.2015.05.048, PMID: 26073008. Conditions: pH 7.4.
Data set [3] can be described thus: method code SF-RC, from DOI: 10.1021/jm201482p, PMID: 22339166. Conditions: pH 6.8.
Data set [4] in a line: method code SF-AS, from DOI: 10.1021/jm00040a014, PMID: 8035429. The conditions noted are these: pH 7.4.
The nature of data set [5]: method code SF-AS, from Zsuzsa, H.; Nora, K. (1979). Study on the partition coefficient of acetanilides. Nehezvegyp. Kut. Intez. Kozl., 8, 139-146.
Data set [6] can be described thus: method code SF-AS, from DOI: 10.1016/s0022-3565(25)32601-7, PMID: 7194909.
The nature of data set [7]: method code SF-RC, from DOI: 10.1021/jf60186a044, PMID: 4688915.
The conditions of data set [8]: pH 7.4.
The nature of data set [9]: method code SF-HPLC, from DOI: 10.1016/j.jpba.2011.06.023, PMID: 21782368. Conditions: pH 7.4.
The nature of data set [10]: method code SF, from DOI: 10.1002/jps.2600830715, PMID: 7965680.
A short description of data set [11]: method code SF-AS, from PMID: 7912440.
Data set [12] is described as follows: method code SF-AS, from DOI: 10.1016/s0014-827x(98)00024-x, PMID: 9679281.
The nature of data set [13]: method code SF, from DOI: 10.1016/j.ejmech.2012.08.015, PMID: 22960698.
Data set [14] can be described thus: method code RP-HPLC, from DOI: 10.1021/jm970292n, PMID: 9371243.
Data set [15] is described as follows: method code SF-RC, from DOI: 10.1021/jm00238a003, PMID: 1120999. The conditions noted are these: pH 7.0.
Test in data set [16]: not given
This is another data set of the same source.

Test in data set [17]: not given
This is another data set of the same source.

Test in data set [18]: not given
The source holds these as a separate data set.

The nature of data set [19]: method code SF-AS, from DOI: 10.1002/qsar.19830020405. Conditions: pH 2.0.
Data set [20] in a line: method code SF-AS, from DOI: 10.1002/ps.2780140302. Conditions: pH 5.0.
The nature of data set [21]: method code SF-RC, from DOI: 10.1021/acs.jmedchem.6b00849, PMID: 27690428. Conditions: pH 7.4.
Data set [22] is described as follows: method code SF, from DOI: 10.1021/jm00140a005, PMID: 7035668. Conditions: pH 12.0.
Test in data set [23]: not given
The source holds these as a separate data set.

Data set [24] in a line: method code SF, from Wang, L.; Li, H.; Wang, X.; Zhang, Z. (1993). Determination of aqueous solubilities and partition coefficients of substitutive ethylketone congeners by generator column. Huanjing Huaxue, 12(2)151-154.
A short description of data set [25]: method code SF-AS, from DOI: 10.1016/s0021-9673(00)91570-x. The conditions noted are these: pH 3.4.
A short description of data set [26]: method code SF-AS, from DOI: 10.1135/cccc19831077. Conditions: pH 3.5.
Test in data set [27]: not given
The source holds these as a separate data set.

Data set [28] is described as follows: method code SF-HPLC, from PMID: 1854437. Conditions: pH 7.4.
Data set [29] can be described thus: method code SF, from DOI: 10.1021/jm00167a034, PMID: 2329572. The conditions noted are these: pH 7.4.

The logD is lipophilicity at a set pH, counting ionised and neutral species. A higher logD goes with higher lipophilicity. For the compound `CC(=O)OCOc1ccccc1C(=O)NCN1CCOCC1`, the pH-dependent lipophilicity (logD) in [1] was found to be 0.27. `O=c1cc(/C=C/c2ccc(O)cc2)oc2ccc(I)cc12`: the pH-dependent lipophilicity (logD) in [2] is 1.87. `Cc1cccc2c1O[P@](=O)(OC[C@H]1O[C@@H](n3cc(I)c(=O)[nH]c3=O)C[C@@H]1O)OC2`: the logD in [3] came to 0.85.

In data set [4], `CCOP(=O)(CC(=O)Nc1ccn(C2CSC(CO)O2)c(=O)n1)OCC` (stereo not given) returned a logD of 0.99. The logP is a log measure of how a compound divides between an organic and an aqueous phase. The low end stands for lower lipophilicity, the high end for higher lipophilicity. As to `O=C(CN(C(=O)C(Cl)Cl)c1ccccc1)Nc1ccccc1`, the logP in [5] is 2.96. `OC1(c2ccc(Cl)cc2)c2ccccc2C2=NCCCN21` (stereo not given) registered a lipophilicity (logP) in data set [6] of 1.41. Take `Cc1ccc(C(c2ccc(Cl)cc2)C(Cl)(Cl)Cl)cc1` (stereo not given): in [7], the logP turned out to be 4.47.

`Cc1nonc1-c1ccc(OCCCc2c[nH]cn2)cc1`: the logP was 2.92. `Cc1ccc(C)n1NC(=O)Cc1ccc(N2CCOCC2)nn1` yielded a logD in [8] of 1.64. As for `COC(=O)CC(CNC(=O)OC(C)(C)C)c1ccc(Cl)cc1` (stereo not given), the logD in data set [9] worked out at 1.5. `CC(NC(=O)N(CCCl)N=O)C(=O)NC1CC(C)(C)N(O)C(C)(C)C1` (stereo not given) showed a logP in data set [10] of 1.28. For the compound `CC(=O)c1cc(C(C)(C)C)ccc1OCC(O)CN` (stereo not given), the logP in data set [11] was determined as 0.38. Take `c1ccc(Nc2nnc(Cn3ccc4ccccc43)s2)cc1`: the logP in data set [12] is 3.73. Regarding `COc1ccc(C(=O)CC2OC(=O)c3ccccc32)cc1OC` (stereo not given), in [13], the logP amounted to 2.61. On to `COc1cccc2cc3cccc(OC)c3c(OC)c12`, for which the logP in data set [14] is 4.1. Compound `Nc1ccn([C@@H]2O[C@H](COC(=O)c3cccnc3)[C@@H](O)[C@@H]2O)c(=O)n1` gave a log distribution coefficient (logD) in data set [15] of -0.6.

In turn, `CCCC(=O)OCOc1ccccc1C(=O)NCN1CCOCC1` displayed a logD in data set [1] of 1.34. In data set [16], `N#Cc1ccc(OCC2CCN(CCCF)CC2)cc1` returned a log partition coefficient (logP) of 2.8.

In turn, `CC(=O)N(CC(=O)Nc1ccccc1)c1ccccc1` came in with a log partition coefficient (logP) in data set [5] of 2.01. For `N#Cc1ccc(OCC2CCN(CCF)CC2)cc1`, the logP in data set [16] was determined as 2.8. For `Cc1noc(C)c1NC1=CC(=O)C(=O)c2ccccc21`, the log partition coefficient (logP) in data set [17] was found to be 1.51.

In data set [18], `CCCCc1c(C)oc(=O)c(CCCC)c1O` came in with a logP of 0.79. As to `O=C(CC1OC(=O)c2ccccc21)c1ccccc1` (stereo not given), the logP in [13] was found to be 2.96. With `CC1(C)CC(NC(=O)CNC(=O)N(CCCl)N=O)CC(C)(C)N1O`, the logP in data set [10] is 1.23. Compound `Cc1ccc(C(=O)c2ccc(CC(=O)O)n2C)cc1` showed a logD in [19] of 2.79.

In turn, `OC(c1ccc(F)cc1)(c1cncnc1)c1ccccc1Cl` (stereo not given) yielded a logD in data set [20] of 2.2. In data set [19], `CC(C(=O)O)c1cccc(C(=O)c2ccccc2)c1` (stereo not given) showed a pH-dependent lipophilicity (logD) of 3.12. `N#Cc1ccc(N(Cc2ccc(I)cc2)n2ccnc2)cc1` returned a logD in [21] of 1.59. `COc1cc(Cc2cnc(N)nc2N)cc(OC)c1C` came in with a pH-dependent lipophilicity (logD) in data set [22] of 2.14. With `CC(C)CC(O)C(O)C(N)NC1CCCCC1` (stereo not given), in data set [23], the logP is 1.86. For the compound `O=c1[nH]c(=O)n([C@H]2C[C@H](O)[C@@H](CO[P@]3(=O)OCc4ccccc4O3)O2)cc1I`, in [3], the logD was 0.65. `Cc1ccc(SCC(=O)c2ccc(C)cc2)cc1` displayed a log partition coefficient (logP) in [24] of 3.19.

Compound `CC(=O)c1cc(C(C)C)ccc1OCC(O)CN` (stereo not given) yielded a logP in data set [11] of 0.1.

With `COc1cc(CC(=O)O)ccc1OCCCC(C)C`, the pH-dependent lipophilicity (logD) in [25] turned out to be 3.3. On to `COc1ccc(/C=C/c2cc(=O)c3cc(I)ccc3o2)cc1`, for which, in [2], the log distribution coefficient (logD) stood at 2.15. Compound `CCOC(=O)CC(CNC(=O)OC(C)(C)C)c1ccc(Cl)cc1` (stereo not given) yielded a log distribution coefficient (logD) in data set [9] of 2. The compound `OC1(c2ccc(Cl)cc2)c2ccccc2C2=NCCCCN21` (stereo not given) yielded a logP in data set [6] of 1.15. `CC(C)CC(O)C(O)C(CC1CCCCCC1)NC(=O)CN` (stereo not given): the log partition coefficient (logP) in data set [23] worked out at 1.52. For `COP(=O)(OC)C(=O)Nc1ccn(C2CSC(COC(=O)P(=O)(OC)OC)O2)c(=O)n1` (stereo not given), the log distribution coefficient (logD) in data set [4] was determined as 0.72. For `Cc1ccc(C(c2ccc(C)cc2)C(Cl)(Cl)Cl)cc1`, in [7], the logP amounted to 3.57. In the case of `Cc1[nH]c2ccccc2c1Cc1n[nH]c(=S)n1-c1cccc2ccccc12`, in data set [12], the log partition coefficient (logP) stood at 3.02. In turn, `CCCCCc1onc(C)c1N=C1C=C(O)C(=O)c2ccccc21` displayed a logP in data set [17] of 3.25. Take `COc1cc(CC(=O)O)ccc1OCc1ccccc1`: the logD in data set [26] is 2.59. The compound `OC(c1ccccc1)(c1cncnc1)c1ccc(Cl)cc1Cl` (stereo not given) had a logD in data set [20] of 2.56. `O=C1c2c(O)cc(O)cc2O[C@H](c2ccc(O)c(O)c2)[C@H]1O` displayed a lipophilicity (logP) in data set [27] of 1.4.

`Cc1ccc(C)n1Nc1ccc(N2C[C@@H](C)O[C@@H](C)C2)nn1` returned a log distribution coefficient (logD) in [8] of 2.59. `CCCCCC(C=O)(CCCC)c1oc(=O)c(CCCC)c(O)c1CCCC` (stereo not given): the logP in [18] came out at 1.52. Compound `Nc1ccn([C@@H]2O[C@H](COC(=O)c3ccccc3)[C@@H](O)[C@@H]2O)c(=O)n1` yielded a logD in data set [15] of 0.5. Regarding `CNC(=NC#N)NCCSCc1ncn(COC(=O)C(C)(C)C)c1C`, in [28], the logD stood at 1.81. Compound `Cc1cn(C2CC(N=[N+]=[N-])C(COC(=O)C(N)Cc3ccc(O)cc3)O2)c(=O)[nH]c1=O` (stereo not given) yielded a logD in [29] of -0.03. `Nc1ccc(S(=O)(=O)Nc2ccnn2-c2ccccc2)cc1` registered a log partition coefficient (logP) in data set [27] of 1.35. `Cc1cn([C@H]2C[C@H](N=[N+]=[N-])[C@@H](COC(=O)c3cccnc3)O2)c(=O)[nH]c1=O` returned a logD in [29] of 0.2. Regarding `O=C(O)Cc1ccc(OCc2ccccc2)cc1`, in [25], the logD stood at 2.85. The compound `O=C1c2c(O)cccc2C(c2ccccc2)c2cccc(O)c21` registered a logP in [14] of 3.81. In data set [24], `COc1ccc(C(=O)CSc2ccccc2)cc1` registered a log partition coefficient (logP) of 2.2. `NC(=O)c1c(-c2ccc(OCCCc3c[nH]cn3)cc2)no[n+]1[O-]`: the logP was found to be 1.57. Take `N#Cc1ccc(N(Cc2ccc(I)cc2)c2cncnc2)cc1`: the logD in [21] turned out to be 2.16. `COc1cc(Cc2cnc(N)nc2N)cc(OC)c1Oc1ccc(N)cc1` displayed a pH-dependent lipophilicity (logD) in [22] of 0.9.

The compound `CCCC(=O)OCn1cnc(CSCCNC(=NC#N)NC)c1C` yielded a pH-dependent lipophilicity (logD) in [28] of 1.6. Consider `O=C(O)Cc1ccc(OCCc2ccccc2)c(Cl)c1`, for which the log distribution coefficient (logD) in data set [26] was found to be 3.53.

Source of the values: the SangsterLogP compilation.
